# Read-outs that look alike come from different tables or passages of the source.
# Legend:
# [1] = tested on: osteoclast differentiation; test: Inhibitory effects on osteoclast differentiation (bone marrow cell/osteoblast co-culture, TRAP staining); format: cell-based, mice; settings: Mus musculus, Osteoclast, 168 h, read-out: Inhibition of osteoclast differentiation (%)
# Description: The effect of the benzamidine derivative of the present invention on osteoclast formation and differentiation process was evaluated via co-culture with an osteoblast.
# Tibia was aseptically ectomized from 6 to 8-week-old male ddY mice to harvest bone marrow cells by using a syringe (21G, Korea Green Cross). The bone marrow cells were suspended in 5 mL of an α-MEM medium (Gibco BRL Co., supplemented with sodium bicarbonate (2.0 g/L), streptomycin (100 mg/L) and penicillin ([…]), filtered and then sterilized). The harvested cells were centrifuged at 600×g for 5 minutes to collect the whole quantity. To remove the red blood cells in the bone marrow cells, 3 mL of Tris HCl (0.83% NH4Cl, pH 7.5) was added and well mixed. After centrifugation, the numbers of the eukaryotic cells in the harvested bone marrow cells were counted, and then immediately used for a co-culture system.
# The progenitor bone and the parietal bone were aseptically ectomized from 1 to 2-day-old neonatal ICR mice, washed with a phosphate butter solution (PBS), and treated with a mixed enzyme solution (0.2% collagenase and 0.1% dispase) six to seven times (10, 10, 10, 20, 20 and 20 min), and then 3 to 6 groups of the cells, in which a large volume of cells having osteoblastic characteristics were contained, were intensively collected, and washed with medium (serum-free α-MEM). The washed cells were cultured in the α-MEM medium containing 10% FBS for 2 to 3 days. After sub-culturing, the collected cells were used for this experiment, and diluted to a concentration of 1×10^6 cells/mL for storage at −70° C.
# The benzamidine derivative of the present invention was dissolved in a sterile distilled water or ethanol to be diluted to a desired concentration. The final volume of the sample added to the cell culture medium was set at a ratio of 1:1000.
# The bone marrow cells prepared in the above 1-1 and the osteoblast were co-cultured. Both the bone marrow cells (25,000 cells/cm^2) and the osteoblast (10,000 cells/cm^2) were plated in a 96-well plate using α-MEM medium containing FBS, and then cultured with the samples to be tested for 7 days. Differentiation factors, such as dexamethasone (10^−7 M) and vitamin D (10^−8 M), were also co-added to the medium from the first day of cultivation. The medium was changed with a fresh media containing a mixture of the samples and the differentiation factors every 2 to 3 days.
# TRAP was used as a marker to measure the matured osteoclast in consideration of its characteristics showing a positive reaction to a TRAP staining solution.
# The TRAP staining solution was prepared in such the manner that 5 mg of naphthol AS-MS phosphate (sigma N-4875) as a substrate and 25 mg of a coloring agent (Fast Red Violet LB salt) were dissolved in N,N-dimethylformamide (about 0.5 mL). 50 ml of a 0.1 N […] buffer solution containing 50 mM tartaric acid (pH 5.0) was added thereto, and the mixture was stored in a refrigerator prior to use as a staining solution.
# After culturing the cells for 7 days, the medium was removed from the wells, the cells were once washed with PBS, and then fixed with PBS containing 10% formalin for 2 to 5 min. The cells were fixed again in a mixed solution of ethanol and acetone (1/1) for about 1 min, and dried off. The cells were further treated by the TRAP staining solution for 15 minutes, and washed with water and dried off. The osteoclasts with 3 or more nuclei showing a TRAP-positive reaction were counted under a microscopic examination. Each of tests was confirmed at least three times. The inhibitory effect on osteoclast differentiation of each experimental group, relative to negative controls, was expressed as a percentage (%).
# calvaria = test: Cytotoxicity test (MTT), calvaria; format: cell-based; settings: 10^−6 M, cultured for 72 hrs, in comparison with the control group
# Description: (§1) The cytotoxic effect of the benzamidine derivative of the present invention was evaluated by carrying out the experiment described below.
# (§2) The test substance was diluted in an appropriate solvent at a concentration of 10^−2 M. This substance was diluted in an appropriate culture medium for the cells used in the cytotoxicity test to a concentration of 10^−6M, and loaded into a 96-well plate in 100 μl per well. The cell lines to be used in the cytotoxicity test were plated on a 96-well plate in a dose of 1.0×10^4 cell/100 μl per well, and cultured for 72 hrs. 25 μl of MTT[3-(4,5-dimethyl-2-thiazolyl)-2,5-diphenyl-2H-tetrazolium bromide] dissolved in PBS (2 mg/mL) were added before 4 hrs of the end of culture. After completion of the reaction, the plates were centrifuged, the medium was discarded and 100 μl of DMSO was added to dissolve formazan. Finally, the absorbance of the developed plates was measured at 540 nm. The survival rates of the cells were expressed as % concentration values in comparison with the control group.
# HOS = test: Cytotoxicity test (MTT), HOS; format: cell-based; settings: 10^−6 M, cultured for 72 hrs, in comparison with the control group
# Description: as §1, §2
# MC3T3-E1 = test: Cytotoxicity test (MTT), MC3T3-E1; format: cell-based; settings: 10^−6 M, cultured for 72 hrs, in comparison with the control group
# Description: as §1, §2
# [2] = 1 μm, 7 days co-culture, TRAP-positive osteoclasts with 3 or more nuclei, relative to negative controls
SMILES,"inhibition at 1 µM [1, 2] [%]",Cell survival rate (calvaria) [%],Cell survival rate (HOS) [%],Cell survival rate (MC3T3-E1) [%],inhibition at 1 µM [1] [%]
"Cc1nc(-c2ccc(OCCCCCOc3ccc(C(=N)NO)cc3)cc2)c(CN2CCCCC2)s1 [Example 11, N-hydroxy-4-{5-[4-(2-methyl-5-piperidin-1-ylmethyl-thiazol-4-yl)-phenoxy]-pentyloxy}-benzamidine]",92.3,95.8,101.9,91.9,
"N=C(NO)c1ccc(OCCCCCOc2ccc(-c3nc(N4CCOCC4)sc3N3CCCC3)cc2)cc1 [Example 7, N-hydroxy-4-{5-[4-(2-morpholin-4-yl-5-pyrrolidin-1-yl-thiazol-4-yl)-phenoxy]-pentyloxy}-benzamidine]",,101,92,99,58
"N=C(NO)c1ccc(OCCCCCOc2ccc(-c3nc(N4CCOCC4)sc3N3CCSCC3)cc2)cc1 [Example 6, N-hydroxy-4-{5-[4-(2-morpholin-4-yl-5-thiomorpholin-4-yl-thiazol-4-yl)-phenoxy]-pentyloxy}-benzamidine]",,106,92,90,92
"Cc1nc(-c2ccc(OCCCCCOc3ccc(C(=N)NO)cc3)cc2)c(NC(=O)c2cccnc2)s1 [Example 39, N-hydroxy-4-[5-(4-{2-methyl-5-[(pyridine-3-carbonyl)-amino]-thiazol-4-yl}-phenoxy)-pentyloxy]-benzamidine]",65.5,86.3,92.1,95.0,
"CN(CCO)c1nc(-c2ccc(OCCCCCOc3ccc(C(=N)NO)cc3)cc2)c(CN2CCOCC2)s1 [Example 25, N-hydroxy-4-[5-(4-{2-[(2-hydroxy-ethyl)-methyl-amino]-5-morpholin-4-ylmethyl-thiazol-4-yl}-phenoxy)-pentyloxy]-benzamidine]",,86,86,100,100
"Cc1nc(-c2ccc(OCCCCCOc3ccc(C(=N)NO)cc3)cc2)c(CNC(C)(C)C)s1 [Example 15, N-hydroxy-4-(5-{4-[5-(tert-butylamino-methyl)-2-methyl-thiazol-4-yl]-phenoxy}-pentyloxy)-benzamidine]",,105,98,99,100
"CN(CCN1CCOCC1)c1nc(-c2ccc(OCCCCCOc3ccc(C(=N)NO)cc3)cc2)c(CN2CCSCC2)s1 [Example 29, N-hydroxy-4-[5-(4-{2-[methyl-(2-morpholin-4-yl-ethyl)-amino]-5-thiomorpholin-4-ylmethyl-thiazol-4-yl}-phenoxy)-pentyloxy]-benzamidine]",,99,109,109,97

# Source: patent publication US20100249402A1, “NOVEL BENZAMIDINE DERIVATIVES, PROCESS FOR THE PREPARATION THEREOF AND PHARMACEUTICAL COMPOSITION FOR PREVENTING OR TREATING OSTEPOROSIS COMPRISING THE SAME” (DONG WHA PHARMACEUTICAL CO. LTD., priority 2007, published 2010)
